Experimental data taken from article PMC10882974 (Environmental Science & Technology, 2024).
“Also recorded” adds a separate entry of the source. Structures can show the parent of a compound that is named as a salt.

Columns and labels:
[1] = toxicokinetics experiment I: elimination after 1 h exposure; type: in vivo, Caenorhabditis elegans; settings: whole organism (worm homogenate)
Protocol: (§1) In between cycles, the samples were kept on ice. […] Samples were stored at −20 °C until further analysis.
(§2) All parameters and units are summarized in SI A3.

C. elegans [2] = assay: as above; type: in vivo, Caenorhabditis elegans; settings: after 1 h exposure; no E. coli
Protocol: as §1, §2

[3] = toxicokinetics experiment IV: long-term exposure of L4 and adult worms; settings: whole organism (worm homogenate), iv, exp IV, with E. coli, 48 h
Protocol: (§3) Three replicates of 1500 pooled C. elegans were used for each time point for each concentration. For experiments with E. coli, the OD600 was kept constant at 0.4.
(§4) C. elegans containing pellets were resuspended in 500 μL of methanol, and 0.6 g of […] ceramic beads (1.4 mm) were added to the vial. The samples were homogenized three times for 20 s using a Minilys homogenizer (Bertin Technologies) at middle speed. In between cycles, the samples were kept on ice. […] The supernatant was transferred to a glass tube, the pellet (including the ceramic beads) was resuspended in 500 μL of methanol, and the homogenization, sonication, and centrifugation cycle was repeated twice more to result in a three-step extraction. The total combined supernatant was concentrated to dryness under a gentle nitrogen stream and redissolved in 500 μL of methanol to a final concentration of the IS of 1 μM. Samples were stored at −20 °C until further analysis.
(§5) A one-compartment model was selected since chemical concentrations could only be measured for the whole organism. […] All parameters and units are summarized in SI A3.
(§6) The kinetic bioconcentration factor[33] was calculated with eq 3, and the ke and kt were only included when applicable to the respective experiment [drawing 4] 3
(§7) Model fitting was performed by adding the ordinary differential equations to the BYOM modeling package version 6.3 (http://www.debtox.info/byom.html) in Matlab R2022b.[34] […] Optimization was performed with the Melder–Mead Simplex Search method, minimizing the minus log-likelihood. […] Model script deviations from the BYOM model can be found in SI A9.

C. elegans [4] = assay: as above
Protocol: as §3, §4, §5, §6, §7

[5] = stability of fluoxetine in S medium; settings: 10 mg/L, 20 °C, 0.5-24 h
Protocol: After 0.5, 1, 2, 5, 10, and 24 h at 20 °C, samples of spiked medium were stored at −80 °C until analysis. […] Therefore, two replicates of the samples were washed three times with M9 buffer, while the other two were just centrifuged once, and the entire supernatant was removed.
E. coli containing pellets were resuspended in 250 μL of methanol and frozen in liquid nitrogen and then left at room temperature to thaw, followed by 5 min of sonication in a sonication bath. The freeze–thawing and sonication were repeated twice more and after this, samples were centrifuged at 15,000g for 15 min. The supernatant was stored at −20 °C until analysis.
Separation was performed on a UHPLC system (Shimadzu) with a Kinetex 1.7 μm C18 100 A LC column (150 mm × 2.1 mm, Phenomenex).

C. elegans [6] = assay: norfluoxetine uptake and coexposure with fluoxetine (SI A5); type: in vivo, Caenorhabditis elegans; settings: fluoxetine 5 and 20 mg/L with norfluoxetine 20 mg/L
Protocol: Alternatively, there could be a concentration-dependent increase in metabolism over time resulting from enzyme induction. This was modeled with an extra metabolism rate constant ke that was included after 10 h (eq 1a and Figure 4C,D).

cyp35-a2 = cyp35-a2 gene expression (qRT-PCR); type: in vivo, Caenorhabditis elegans
Protocol: 1500 worms were collected in eppendorf tubes with 300 μL of RLT lysis buffer (Qiagen, Hilden, Germany) and homogenized using a Minilys homogenizer (Bertin Technologies) at middle speed four times for 20 s and kept on ice in between. Total RNA was isolated with the QIAshredder and RNeasy mini kits (Qiagen) according to the manufacturer’s protocol. The QuantiTect reverse transcription kit (Qiagen) was used for cDNA generation. RT-qPCR was performed on a Biorad CFX Opus 384 System using an iQ SYBR Green Supermix (Biorad) for amplification. The gene of interest was cyp35-a2, and cdc-42 was used as a housekeeping gene. Primers were generated by Biolegio (Nijmegen, The Netherlands); further details on the RT-qPCR and primers can be found in SI A7. Three biological replicates were used for each treatment.

[7] = toxicokinetics experiment III: effect of E. coli on uptake; type: in vivo, Caenorhabditis elegans; settings: 10 mg/L, k2f elimination rate constant of fluoxetine (k2FLX,sum), exp III, 10 h
Protocol: as §1, §2

C. elegans [8] = assay: as above; type: in vivo, Caenorhabditis elegans; settings: for BCF FLX (kinetic bioconcentration factor) / kt transformation rate constant of fluoxetine to norfluoxetine: exp III, 10 h
Protocol: as §1, §2

[9] = tested on: marine mussels, freshwater mussels, Daphnia magna; settings: cited from earlier work
[10] = toxicokinetics experiment II: short-term uptake of different concentrations; type: in vivo, Caenorhabditis elegans; settings: k2f elimination rate constant of fluoxetine (k2FLX,sum), exp II, no E. coli, 2 h
Protocol: as §1, §2

C. elegans [11] = assay: as above; type: in vivo, Caenorhabditis elegans; settings: for BCF FLX (kinetic bioconcentration factor) / k1 uptake rate constant: exp II, no E. coli, 2 h
Protocol: as §1, §2

[12] = tested on: Gammarus pulex, Nile tilapia, and Japanese Medaka; settings: cited from earlier work
[13] = exp IV, with E. coli, 0.5 mg/L, 48 h
[14] = exp IV, with E. coli, 20 mg/L, 48 h
[15] = with E. coli, 10 mg/L, k1, k2FLX, k2NF, kt constrained (eq 1b)
[16] = with E. coli, 10 mg/L, no constraint
[17] = combined experiments II, III, IV

## CNCCC(Oc1ccc(C(F)(F)F)cc1)c1ccccc1 (centres unmarked) [fluoxetine, Fluoxetine hydrochloride]
[1]; 1 h exposure (fluoxetine 0.5, 5, 20 mg/L; norfluoxetine 20 mg/L), then clean medium, no E. coli, read-out: k2sum elimination rate constant (+95% CI) (converted)
  k el: 0.000394 s⁻¹
[1]; 1 h exposure, then clean medium, slow phase after 1 h, no E. coli, read-out: k2slow elimination rate constant (+95% CI) (converted)
  k el: 0.000131 s⁻¹
[1]; calculated from k2sum and k2slow, read-out: k2fast elimination rate constant (converted)
  k el: 0.000264 s⁻¹
C. elegans [2]
  elimination over time after transfer to clean medium: almost all fluoxetine was eliminated after 6 h
[3]; 0.5 mg/L, k2f elimination rate constant of fluoxetine (k2FLX,sum)
  k el: 0.000336 s⁻¹
[3]; 0.5 mg/L, ke extra metabolism rate constant after 10 h, 0.5 mg/L
  k el: 1.42e-05 s⁻¹
[3]; 20 mg/L, k2f elimination rate constant of fluoxetine (k2FLX,sum)
  k el: 0.000233 s⁻¹
[3]; 20 mg/L, ke extra metabolism rate constant after 10 h, 20 mg/L
  k el: 0.000144 s⁻¹
C. elegans [4]; 0.5 and 20 mg/L, 48 h
  steady-state concentrations, L4 versus adult C. elegans (life stage): did not show significant differences; also recorded: tested, but no effect (L4 vs adult)
C. elegans [4]; E. coli related, modeled with eq 1b
  IR (ingestion rate) versus (toxic) effect on feeding: IR (ingestion rate): negatively correlated–neurotoxic effect
C. elegans [4]; adding extra ke parameter over time
  k2 versus CYP P450 induction (linked to exposure time): k2: positively correlated (adding extra ke parameter over time)
C. elegans [4]; [13]
  BCF FLX (kinetic bioconcentration factor): 24.66
  k1 uptake rate constant: 31.1 L/(kgnem h)
C. elegans [4]; [14]
  BCF FLX (kinetic bioconcentration factor): 6.36
  k1 uptake rate constant: 9.01 L/(kgnem h)
  kt transformation rate constant of fluoxetine to norfluoxetine: 0.056 h⁻¹
[5]
  concentration of fluoxetine in S medium without C. elegans over time: constant over time
C. elegans [6]
  effect of coexposure with norfluoxetine on internal fluoxetine concentrations: no significant differences; also recorded: tested, but no effect
cyp35-a2; 0.5 mg/L fluoxetine
  increase in CYP gene expression (cyp35-a2) over time: not observed
cyp35-a2; 20 mg/L fluoxetine, observed for 24 h, not yet for 10 h
  CYP gene expression (cyp35-a2) over time: increase in CYP gene expression over time
[7]; whole organism (homogenate of pooled worms), no E. coli
  k el: 0.000461 s⁻¹
[7]; whole organism (worm homogenate), with E. coli, k1, k2FLX, k2NF, kt constrained (eq 1b)
  k el: 0.000461 s⁻¹
[7]; whole organism (worm homogenate), with E. coli, no constraint
  k el: 0.000111 s⁻¹
C. elegans [8]; Figure 4
  time to reach peak internal fluoxetine concentrations: 2 to 5 h
C. elegans [8]; Figure 5
  effect of presence of bacteria on k2FLX,sum: decreased to around half
C. elegans [8]; no E. coli, 10 mg/L
  BCF FLX (kinetic bioconcentration factor): 8.19
  kt transformation rate constant of fluoxetine to norfluoxetine: 0.05 h⁻¹
C. elegans [8]; [15]
  BCF FLX (kinetic bioconcentration factor): 8.19
  kt transformation rate constant of fluoxetine to norfluoxetine: 0.05 h⁻¹
C. elegans [8]; [16]
  BCF FLX (kinetic bioconcentration factor): 20.67
  kt transformation rate constant of fluoxetine to norfluoxetine: 0.065 h⁻¹
C. elegans [8]; experiment III, 10 mg/L
  effect of presence of bacteria on internal concentration of fluoxetine: almost doubled
C. elegans [8]; in vivo
  BCF versus presence of E. coli: BCF: positively correlated
  k2 versus presence of E. coli: k2: negatively correlated
[9]
  BCF values in other species: 100 to 10,000
[10]; whole organism (homogenate of pooled worms), 5 mg/L, k2FLX constrained (value of experiment I)
  k el: 0.000394 s⁻¹
[10]; whole organism (homogenate of pooled worms), 5 mg/L, no constraint
  k el: 0.000333 s⁻¹
[10]; whole organism (homogenate of pooled worms), 20 mg/L, k2FLX constrained (value of experiment I)
  k el: 0.000394 s⁻¹
[10]; whole organism (homogenate of pooled worms), 20 mg/L, no constraint
  k el: 0.000778 s⁻¹
[10]; whole organism (worm homogenate), 0.5 mg/L, k2FLX constrained (value of experiment I)
  k el: 0.000394 s⁻¹
[10]; whole organism (worm homogenate), 0.5 mg/L, no constraint
  k el: 0.000981 s⁻¹
C. elegans [11]; [17]
  BCF versus exposure concentration: BCF: negatively correlated
  k1 versus exposure concentration: k1: negatively correlated
C. elegans [11]; 0.5 mg/L, k2FLX constrained
  BCF FLX (kinetic bioconcentration factor): 15.85
  k1 uptake rate constant: 22.5 L/(kgnem h)
C. elegans [11]; 0.5 mg/L, no constraint
  BCF FLX (kinetic bioconcentration factor): 13.06
  k1 uptake rate constant: 46.1 L/(kgnem h)
C. elegans [11]; 5 mg/L, k2FLX constrained
  BCF FLX (kinetic bioconcentration factor): 7.18
  k1 uptake rate constant: 10.2 L/(kgnem h)
C. elegans [11]; 5 mg/L, no constraint
  BCF FLX (kinetic bioconcentration factor): 7.66
  k1 uptake rate constant: 9.19 L/(kgnem h)
C. elegans [11]; 20 mg/L, k2FLX constrained
  BCF FLX (kinetic bioconcentration factor): 3.20
  k1 uptake rate constant: 4.54 L/(kgnem h)
C. elegans [11]; 20 mg/L, no constraint
  BCF FLX (kinetic bioconcentration factor): 2.71
  k1 uptake rate constant: 7.58 L/(kgnem h)
[12]
  k2 elimination rate: 0.0008 to 0.08 h⁻¹
